Measured values published in ChEMBL document CHEMBL1938367, “Novel potent 2,5-pyrrolidinedione peptidomimetics as aminopeptidase N inhibitors. Design, synthesis and activity evaluation” (Bioorg Med Chem Lett, 2012).
pIC50: −log10 of the molar value.

Experiments:
H22 = assay: Antimetastatic activity against […] H22 cells xenografted in mouse assessed as inhibition of metastasized nodes on lung surface dosed orally 6 days/week for 2 weeks; type: functional
[1] = target: T1, Aminopeptidase N (Sus scrofa) (UniProt P15145); assay: Ratio of bestatin IC50 to compound IC50 for porcine kidney microsomal aminopeptidase N
T1 sequence (whole entry): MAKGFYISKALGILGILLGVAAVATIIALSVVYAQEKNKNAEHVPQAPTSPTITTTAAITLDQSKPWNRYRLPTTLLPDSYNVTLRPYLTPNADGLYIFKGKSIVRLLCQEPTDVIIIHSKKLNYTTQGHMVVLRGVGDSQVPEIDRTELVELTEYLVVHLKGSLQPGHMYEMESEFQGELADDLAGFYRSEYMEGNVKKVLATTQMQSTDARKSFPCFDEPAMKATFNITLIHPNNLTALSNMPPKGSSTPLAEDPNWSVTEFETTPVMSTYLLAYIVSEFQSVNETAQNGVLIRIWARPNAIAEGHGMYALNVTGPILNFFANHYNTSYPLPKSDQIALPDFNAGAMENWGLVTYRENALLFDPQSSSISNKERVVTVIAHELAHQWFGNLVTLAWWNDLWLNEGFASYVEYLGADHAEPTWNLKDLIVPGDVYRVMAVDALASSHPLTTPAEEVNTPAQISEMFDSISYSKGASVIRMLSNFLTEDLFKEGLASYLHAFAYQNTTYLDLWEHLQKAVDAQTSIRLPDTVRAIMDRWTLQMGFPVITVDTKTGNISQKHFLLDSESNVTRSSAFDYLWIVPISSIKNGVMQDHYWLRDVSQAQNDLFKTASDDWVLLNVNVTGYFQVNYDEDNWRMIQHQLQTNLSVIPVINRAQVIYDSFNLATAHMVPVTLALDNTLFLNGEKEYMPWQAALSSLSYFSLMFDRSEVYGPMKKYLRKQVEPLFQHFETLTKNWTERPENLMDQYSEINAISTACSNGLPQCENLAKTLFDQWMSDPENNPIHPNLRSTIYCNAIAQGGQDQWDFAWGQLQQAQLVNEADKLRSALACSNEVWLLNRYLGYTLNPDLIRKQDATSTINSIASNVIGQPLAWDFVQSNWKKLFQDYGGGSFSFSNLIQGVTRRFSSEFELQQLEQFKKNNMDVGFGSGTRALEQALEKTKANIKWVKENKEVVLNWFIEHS

Aminopeptidase N = target: T2, Aminopeptidase N (Sus scrofa, UniProt P15145); assay: Inhibition of porcine kidney microsomal aminopeptidase N using L-Leu-p-nitroanilide as substrate pre-incubated for 30 mins prior substrate addition by UV-VIS spectrophotometry
T2 sequence (P15145 whole entry): T1 sequence (whole entry)

HL-60 = assay: Antiproliferative activity against human HL60 cells after 48 hrs by MTT assay; type: functional, cell-based; settings: HL-60, 48 h

| SMILES | pIC50 (Aminopeptidase N) | also measured |
| --- | --- | --- |
| CC(C)C[C@H](NC(=O)[C@@H](O)[C@H](N)Cc1ccccc1)C(=O)O [UBENIMEX] | – | inhibition (INH) (H22): 45.37% |
| CC(C)C[C@H](NC(=O)[C@@H](O)[C@H](N)Cc1ccccc1)C(=O)N1CCC[C@H]1C(=O)N1CCC[C@H]1C(=O)O | – | Ratio IC50 [1]: 50 |
| N[C@@H](Cc1ccc(O)cc1)C(=O)N[C@H]1CC(=O)N(CC(=O)NO)C1=O | 6.00 | – |
| Cl.N[C@@H](Cc1ccccc1)C(=O)N[C@H]1CC(=O)N(CC(=O)NO)C1=O | 6.00 | pIC50 (HL-60): 3.83; inhibition (INH) (H22): 54.21%; Ratio IC50 [1]: 2.4 |
| NCC(=O)N[C@H]1CC(=O)N(CC(=O)NO)C1=O | 6.00 | – |

Further lines, with some results ahead:

| pIC50 (Aminopeptidase N) | SMILES | also measured |
| --- | --- | --- |
| 6.00 | O=C(CN1C(=O)C[C@H](NC(=O)[C@@H]2CCCN2)C1=O)NO | – |
| 6.00 | C[C@H](N)C(=O)N[C@H]1CC(=O)N(CC(=O)NO)C1=O | – |
| 6.00 | CC(C)C[C@H](N)C(=O)N[C@H]1CC(=O)N(CC(=O)NO)C1=O | – |
| 6.00 | CC(C)[C@H](N)C(=O)N[C@H]1CC(=O)N(CC(=O)NO)C1=O | – |
| 6.00 | NCCCC[C@H](N)C(=O)N[C@H]1CC(=O)N(CC(=O)NO)C1=O | – |
| 6.00 | CC[C@@H](C)[C@H](N)C(=O)N[C@H]1CC(=O)N(CC(=O)NO)C1=O | – |
